# Reference: ChEMBL document CHEMBL4043278, “Discovery of benzo[g]indoles as a novel class of non-covalent Keap1-Nrf2 protein-protein interaction inhibitor” (Bioorg Med Chem Lett, 2017)
# Activity calls are given as the source filed them. The calls are words filed in the database; no cut-off is given here.
# Assays:
# HepG2 = experiment: Cytotoxicity against human HepG2 cells assessed as reduction in cell viability at 50 uM after 24 hrs by WST8 assay; type: cell-based; settings: hepg2, 24 h
# [1] = Metabolic stability in human liver microsomes assessed as parent compound remaining at 1 uM preincubated for 3 mins followed by NADP+ addition measured after 30 mins by LC-MS assay; type: ADME, microsome; settings: read-out: Stability
# [2] = molecular target: T1, Kelch-like ECH-associated protein 1/Nuclear factor erythroid 2-related factor 2 (Mus musculus) (UniProt Q60795+Q9Z2X8); experiment: Inhibition of Keap1-Nrf2 protein-protein interaction in MEF assessed as increase in Nrf2 activation mediated NQO1 mRNA level at 10 uM after 4 hrs by qRT-PCR method
# T1 sequence (Q60795 whole entry, looked up): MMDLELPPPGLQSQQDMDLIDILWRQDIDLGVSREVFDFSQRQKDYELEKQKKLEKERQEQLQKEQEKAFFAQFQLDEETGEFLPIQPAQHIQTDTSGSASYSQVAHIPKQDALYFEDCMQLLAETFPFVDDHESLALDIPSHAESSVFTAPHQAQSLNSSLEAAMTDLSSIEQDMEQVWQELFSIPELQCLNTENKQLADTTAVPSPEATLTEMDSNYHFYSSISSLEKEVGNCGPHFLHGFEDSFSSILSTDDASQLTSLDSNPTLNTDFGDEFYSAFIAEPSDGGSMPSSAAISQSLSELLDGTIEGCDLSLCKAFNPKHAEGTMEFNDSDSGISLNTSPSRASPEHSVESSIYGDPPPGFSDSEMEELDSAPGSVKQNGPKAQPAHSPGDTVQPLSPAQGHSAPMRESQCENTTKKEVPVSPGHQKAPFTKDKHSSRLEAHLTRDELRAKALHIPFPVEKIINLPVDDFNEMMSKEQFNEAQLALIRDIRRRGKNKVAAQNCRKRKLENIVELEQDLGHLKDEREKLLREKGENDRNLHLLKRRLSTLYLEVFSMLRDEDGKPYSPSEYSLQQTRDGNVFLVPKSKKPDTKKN
# T1 sequence (Q9Z2X8 whole entry, looked up): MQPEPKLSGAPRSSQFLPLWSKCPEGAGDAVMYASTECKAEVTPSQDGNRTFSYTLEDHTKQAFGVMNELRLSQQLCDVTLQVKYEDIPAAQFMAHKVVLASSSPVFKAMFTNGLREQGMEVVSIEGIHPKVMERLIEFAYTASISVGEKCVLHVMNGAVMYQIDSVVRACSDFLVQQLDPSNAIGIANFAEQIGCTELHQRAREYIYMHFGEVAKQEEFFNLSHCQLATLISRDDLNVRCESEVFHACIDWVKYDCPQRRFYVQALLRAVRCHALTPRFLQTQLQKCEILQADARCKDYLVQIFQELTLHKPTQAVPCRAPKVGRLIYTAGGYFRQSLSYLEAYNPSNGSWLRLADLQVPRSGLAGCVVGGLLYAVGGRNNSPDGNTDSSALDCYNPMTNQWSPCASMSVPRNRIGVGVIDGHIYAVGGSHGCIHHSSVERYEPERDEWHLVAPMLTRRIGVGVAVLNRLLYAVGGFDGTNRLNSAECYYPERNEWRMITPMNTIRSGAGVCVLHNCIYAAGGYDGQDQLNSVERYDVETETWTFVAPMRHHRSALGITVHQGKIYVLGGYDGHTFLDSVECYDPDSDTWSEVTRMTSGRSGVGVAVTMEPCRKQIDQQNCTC
# [3] = molecular target: T1, Kelch-like ECH-associated protein 1/Nuclear factor erythroid 2-related factor 2 (Mus musculus); experiment: Inhibition of Keap1-Nrf2 protein-protein interaction in MEF assessed as increase in Nrf2 activation mediated NQO1 mRNA level at 100 uM after 4 hrs by qRT-PCR method
"remaining at 0.5 h, 1 µM [1]",inhibition [2],inhibition [3],Structure (SMILES),Activity (HepG2)
94.8%,–,–,COc1ccc(NNC(=O)c2c(C)n(S(=O)(=O)c3ccc(OC)cc3)c3c2cc(NS(=O)(=O)c2ccc(OC)cc2)c2ccccc23)cc1,Non-Toxic
–,Active,–,CC(C)(C)c1cc(O)ccc1O,–
–,–,–,COc1cccc2c1C(=O)c1c(O)c3c(c(O)c1C2=O)C[C@@](O)(C(=O)CO)C[C@@H]3O[C@H]1C[C@H](N)[C@H](O)[C@H](C)O1 [DOXORUBICIN],Toxic
85.4%,–,–,COc1ccc(S(=O)(=O)Nc2cc3c(C(=O)NNc4ccccc4)c(C)n(S(=O)(=O)c4ccc(OC)cc4)c3c3ccccc23)cc1,Non-Toxic
46.6%,–,–,CCOc1ccc(S(=O)(=O)Nc2cc3c(C(=O)NN)c(C)n(S(=O)(=O)c4ccc(OCC)cc4)c3c3ccccc23)cc1,Non-Toxic
81%,–,Active,CCOc1ccc(S(=O)(=O)Nc2cc3c(C(=O)NO)c(C)n(S(=O)(=O)c4ccc(OCC)cc4)c3c3ccccc23)cc1,Non-Toxic
9.3%,–,–,COc1ccc(S(=O)(=O)Nc2ccc(NS(=O)(=O)c3ccc(OC)cc3)c3ccccc23)cc1,–
86.5%,–,–,COc1ccc(S(=O)(=O)Nc2cc3c(C(=O)NNc4ccc([N+](=O)[O-])cc4)c(C)n(S(=O)(=O)c4ccc(OC)cc4)c3c3ccccc23)cc1,Toxic
58.6%,–,–,COc1ccc(S(=O)(=O)N(CC(=O)O)c2ccc(N(CC(=O)O)S(=O)(=O)c3ccc(OC)cc3)c3ccccc23)cc1,Non-Toxic
90.8%,–,–,CNNC(=O)c1c(C)n(S(=O)(=O)c2ccc(OC)cc2)c2c1cc(NS(=O)(=O)c1ccc(OC)cc1)c1ccccc12,Non-Toxic
